Experimental data as given in publication PMC6864647, “Synthesis and Antiviral Activity of Novel 1,3,4-Thiadiazole Inhibitors of DDX3X” (Molecules, 2019).
Where two headings read alike, the source gives them in different places.

Columns and labels:
DDX3X ATPase = molecular target: T1, DDX3X ATPase (Homo sapiens, UniProt O00571); test: DDX3X ATPase assay (ADP-Glo); assay type: biochemical; details: recombinant human DDX3X, 50 μM ATP, mean ± SD of three experiments; for Ki: read-out: DDX3X ATPase Ki (apparent dissociation constant for inhibitor binding)
T1 construct: Recombinant his-tagged human full length DDX3X was cloned into the E. coli expression vector pET-30a(+); His tag; made in house; host or cells: Shuffle T7 E. coli
T1 sequence (O00571 whole entry): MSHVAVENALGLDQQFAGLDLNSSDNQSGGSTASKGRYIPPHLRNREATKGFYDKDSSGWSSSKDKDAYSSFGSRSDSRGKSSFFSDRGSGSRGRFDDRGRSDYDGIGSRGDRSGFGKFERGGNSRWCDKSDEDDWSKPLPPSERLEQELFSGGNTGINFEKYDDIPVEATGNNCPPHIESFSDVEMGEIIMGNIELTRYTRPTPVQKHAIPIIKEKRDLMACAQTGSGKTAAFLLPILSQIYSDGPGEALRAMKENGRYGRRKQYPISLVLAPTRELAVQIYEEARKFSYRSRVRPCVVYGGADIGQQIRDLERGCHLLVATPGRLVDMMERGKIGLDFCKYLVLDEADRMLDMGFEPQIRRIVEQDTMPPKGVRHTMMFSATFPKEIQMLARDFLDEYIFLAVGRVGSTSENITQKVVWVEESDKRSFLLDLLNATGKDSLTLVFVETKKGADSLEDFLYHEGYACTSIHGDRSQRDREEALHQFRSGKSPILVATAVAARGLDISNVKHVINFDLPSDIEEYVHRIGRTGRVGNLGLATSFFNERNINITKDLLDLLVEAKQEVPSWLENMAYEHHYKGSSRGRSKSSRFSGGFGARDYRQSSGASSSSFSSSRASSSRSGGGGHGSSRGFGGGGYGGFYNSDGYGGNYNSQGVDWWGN
Method: Recombinant his-tagged human full length DDX3X was cloned into the E. coli expression vector pET-30a(+). Shuffle T7 E. coli cells were transformed with the plasmid and grown at 37 °C up to OD600 = 0.7. DDX3X expression was induced with 0.5 mM IPTG at 15 °C O/N. The cells were harvested by centrifugation, lysed, and the crude extract centrifuged at 100.000xg for 60 min. at 4 °C in a Beckman centrifuge before being loaded onto a FPLC Ni-NTA column (GE Healthcare). Column was equilibrated in Buffer A (50 mM Tris-HCl pH 8.0, 250 mM NaCl, 25 mM Imidazole, and 20% glycerol). After extensive washing in Buffer A, the column was eluted with a linear gradient in Buffer A from 25 mM to 250 mM Imidazole. Proteins in the eluted fractions were visualized on SDS-PAGE and then tested for the presence of DDX3X by Western blot with anti-DDX3X A300-475A(BETHYL) at 1:2000 dilution in 5% milk. Fractions containing the purest DDX3X protein were pooled and stored at −80 °C.
The ATPase assay was carried out by using the commercial kit Promega (Milan, Italy), ADP-Glo^TM Kinase Assay. Reaction was performed in 30 mM TrisHCl pH 8, 9 mM MgCl2, 0.05 mg/mL BSA, 50 μM ATP, and 4 μM of recombinant DDX3X. Reaction was performed following the ADP-Glo^TM Kinase Assay Protocol and luminescence was measured with MicroBeta TriLux (Perkin Elmer, Milan, Italy).

HIV-1 (NL4-3) = test: Antiviral BiCycle assay, HIV-1 NL4-3 in H9 cells with TZM-bl readout; assay type: cell-based; details: 72 h, then TZM-bl reporter cells 48 h
Method: The antiviral activity was evaluated by measuring the half maximal inhibitory concentration (IC50) values against the HIV-1 wild-type reference strain NL4-3 in a TZM-bl cell line based phenotypic assay, named BiCycle Assay. The method includes a first round of infection of human T cell lymphoma derived clone H9 at multiplicity of infection of 0.03 in the presence of serial dilution of compounds in a 96-well plate. After 72 h, 50 microliters of supernatants from each well were used to infect the TZM-bl cell line, which allow the quantitative analysis of HIV infection by measuring the expression of the luciferase gene integrated in the genome of the cells under the control of HIV-1 LTR promoter.
After 48 h, dose-response curves were generated by measuring reporter gene expression in each well by using the Bright-Glo Luciferase Assay (Promega) through the GloMax Discovery reader (Promega). Relative luminescence units measured in each well were elaborated with the GraphPad Software v.6.0 to calculate IC50 values. All the viruses and cell lines were obtained through the NIH AIDS Reagent Program (www.aidsreagent.org).

[1] = Cytotoxicity assay in H9 cells (CellTiter-Glo 2.0); assay type: cell-based, human; details: human; non-infected H9 cells, 72 h
Method: (§1) Cytotoxicity in H9 cells was determined by using the CellTiter-Glo 2.0 assay (Promega). H9 cells were seeded at 40,000 cells/well in duplicate in the presence of serial two-fold dilutions of compounds (range 200–1.56 μM) and incubated for 72 h. Cell viability was calculated by measuring cellular ATP as a marker of metabolically active cells through a luciferase based chemical reaction and expressed as the concentration that reduce cell viability by 50%.

[2] = Parallel Artificial Membrane Permeability Assay (PAMPA); assay type: in vitro ADME; details: pH 7.4, 5 h; for Papp at 5 h, 0.5 mM: room temperature, read-out: AppP (apparent permeability)
Method: Finally, we evaluated passive membrane permeability (AppP) while using Parallel Artificial Membrane Permeability Assay (PAMPA). The quantity of compound able to diffuse through a semipermeable artificial membrane was calculated by LC-MS-MS.
Donor solution (0.5 mM) was prepared by diluting 1 mM dimethylsulfoxide (DMSO) compound stock solution while using phosphate buffer (pH 7.4, 0.025 M). Filters were coated with 5 μL of a 1% (w/v) dodecane solution of phosphatidylcholine for intestinal permeability. Donor solution (150 μL) was added to each well of the filter plate. To each well of the acceptor plate was added 300 μL of solution (50% DMSO in phosphate buffer). All of the compounds were tested in three different plates on different days. The sandwich was incubated for 5 h at room temperature under gentle shaking. After the incubation time, the plates were separated, and samples were taken from both receiver and donor sides and analyzed while using LC with UV detection at 280 nm. LC analysis was performed with a PerkinElmer (series 200) instrument that was equipped with an UV detector (PerkinElmer 785A, UV/vis Detector). Chromatographic separation was conducted using a Polaris C18 column (150–4.6 mm, 5 μm particle size) at a flow rate of 0.8 mL min^−1 with a mobile phase composed of 60% ACN/40% H2O-formic acid 0.1% for all compounds. Permeability (Papp) was calculated according to the following equation with some modification to obtain permeability values in cm/s, (1) Papp=VDVA/(VD+VA)At−ln(1−r) where VA is the volume in the acceptor well, VD is the volume in the donor well (cm^3), A is the “effective area” of the membrane (cm^2), t is the incubation time (s), and r the ratio between drug concentration in the acceptor and equilibrium concentration of the drug in the total volume(VD + VA).
Drug concentration is estimated by using the peak area integration. Membrane retentions (%) were calculated according to the following equation:(2) %MR=[r−(D+A)]100/Eq where r is the ratio between drug concentration in the acceptor and equilibrium concentration, D, A, and Eq represented drug concentration in the donor, acceptor, and equilibrium solution, respectively.

Water solubility assay = assay type: physicochemical; details: 27 °C, thermodynamic from solid, 1 mg in 1 mL water
Method: […] After 24 h of stirring at 27 °C, the mixture was filtered and the quantity of solubilized compound determined by LC-MS-MS. […] By contrast, esters 30 and 31 due to their lipophilicity have values outside the recommended range […].
The appropriate (1 mg) was added to 1 mL of water. The sample was shaken in a shaker bath at room temperature for 24–36 h. The suspensions were filtered through a 0.45 μm nylon filter (Acrodisc, Sigma Aldrich, Milan, Italy) and the solubilized compound determined by LC-MS-MS assay. The determination was performed in triplicate. For the quantification, an LC-MS system consisting of a Varian apparatus (Varian Inc., Palo Alto, CA, USA), including a vacuum solvent degassing unit, two pumps (212-LC), a Triple Quadrupole MSD (Mod. 320-LC) mass spectrometer with ES interface, and Varian MS Workstation System Control Vers. 6.9 software, was used. Chromatographic separation was obtained while using a 3 μm particle size Pursuit C18 column (50 × 2.0 mm) (Varian). Column was equilibrated in Buffer B (aqueous solution of 0.1% formic acid) and eluted with a linear increase from 0% to 70% gradient of Buffer A (ACN) for 10 min. and subsequent increase up to 98% for additional 5 min. The instrument operated in positive mode and the following parameters were used: injection volume 5 μL, flow rate 0.3 mL/min, detector 1850 V, drying gas pressure 25.0 psi, desolvation temperature 300.0 °C, nebulizing gas 45.0 psi, needle 5000 V, and shield 600 V. Nebulizer gas and drying gas was Nitrogen. Argon was the collision gas at a pressure of 1.8 mTorr in the collision cell. Single compound quantification was performed in comparison with standard calibration curves in methanol.

H9 cells = test: Cytotoxicity assay in H9 cells (CellTiter-Glo 2.0); assay type: cell-based, human; details: CC50 in H9 cells versus anti-HIV-1 IC50
Method: as §1

HIV-1 = tested on: HIV-1; set-up: method as in PMID 18834110; details: MT4 cells; read-out: EC50, inhibition of HIV-1 replication; cited from earlier work
DDX3X = molecular target: DDX3X; set-up: method as in PMID 21698775; details: cited from earlier work
[3] = Human immunodeficiency virus 1, NL43, H9 cells
[4] = read-out: AqS (aqueous solubility)
[5] = read-out: AqS as Log of molar concentration (LogS) (converted)

Row | Compound | Ki (DDX3X ATPase) | IC50 (HIV-1 (NL4-3); [3]) | CC50 at 72 h [1] | Percentage in parentheses beside AppP (membrane retention) [2] | Papp at 5 h, 0.5 mM [2] | solubility at 24 h (Water solubility assay; [4]) | solubility at 24 h (Water solubility assay; [5]) | further results
1 | COc1ccc(-c2nnc(N3C(=O)c4ccccc4C3=O)s2)cc1 [Compound 17, 2-(5-(4-Methoxyphenyl)-1,3,4-thiadiazol-2-yl)isoindoline-1,3-dione] | > 50 µM |  |  |  |  |  |  | DDX3X ATPase Ki (apparent dissociation constant for inhibitor binding) (DDX3X ATPase): completely inactive
2 | COc1ccc(-c2nnc(NC(=O)c3ccccc3C(=O)O)s2)cc1 [Compound 23, 2-((5-(4-Methoxyphenyl)-1,3,4-thiadiazol-2-yl)carbamoyl)benzoic acid] | 1.3 ± 0.2 µM | > 50 µM | > 200 µM | 0% | < 0.1 ×10⁻⁶ cm/s | 3.3 µg/mL | 9.33 µM | HIV-1 (NL4-3) IC50 (HIV-1 (NL4-3); H9 cells): inactive
3 | O=C(O)c1ccccc1C(=O)Nc1nnc(-c2ccc(O)cc2)s1 [Compound 24, 2-((5-(4-Hydroxyphenyl)-1,3,4-thiadiazol-2-yl)carbamoyl)benzoic acid] | 1.9 ± 0.4 µM | 3.9 µM | 125 µM | 0% | < 0.1 ×10⁻⁶ cm/s | 27.8 µg/mL | 83.2 µM | IC50 (HIV-1 (NL4-3); H9 cells): 2.8 ± 1.5 µM; SI (selectivity index) (H9 cells): 45
4 | O=C(O)c1ccccc1C(=O)Nc1nnc(-c2ccccc2Br)s1 [Compound 25, 2-((5-(2-Bromophenyl)-1,3,4-thiadiazol-2-yl)carbamoyl)benzoic acid] |  |  |  |  |  |  |  | DDX3X ATPase Ki (apparent dissociation constant for inhibitor binding) (DDX3X ATPase): abolished
5 | CN(C)c1ccc(-c2nnc(NC(=O)c3ccccc3C(=O)O)s2)cc1 [Compound 27, 2-((5-(4-(Dimethylamino)phenyl)-1,3,4-thiadiazol-2-yl)carbamoyl)benzoic acid] | 11.9 ± 1.9 µM | > 50 µM | 130 µM |  |  |  |  | 
6 | O=C(O)c1ccccc1C(=O)Nc1nnc(-c2ccccc2[N+](=O)[O-])s1 [Compound 28, 2-((5-(2-Nitrophenyl)-1,3,4-thiadiazol-2-yl)carbamoyl)benzoic acid] | 18.3 ± 1.8 µM | 42.3 ± 5.2 µM | 74 µM |  |  |  |  | SI (selectivity index) (H9 cells): 1.7
7 | COC(=O)c1ccccc1C(=O)Nc1nnc(-c2ccc(OC)cc2)s1 [Compound 29, Methyl 2-((5-(4-methoxyphenyl)-1,3,4-thiadiazol-2-yl)carbamoyl)benzoate] | 15.6 µM |  | 45 µM | 36% | 0.7 ×10⁻⁶ cm/s | 0.5 µg/mL | 1.35 µM | 
8 | CCOC(=O)c1ccccc1C(=O)Nc1nnc(-c2ccc(OC)cc2)s1 [Compound 30, Ethyl 2-((5-(4-methoxyphenyl)-1,3,4-thiadiazol-2-yl)carbamoyl)benzoate] | 20.1 ± 2.1 µM | > 50 µM | > 200 µM | 4.6% | 2.1 ×10⁻⁶ cm/s | < 0.1 µg/mL | > 1 µM | 
9 | CCCCOC(=O)c1ccccc1C(=O)Nc1nnc(-c2ccc(OC)cc2)s1 [Compound 31, Butyl 2-((5-(4-methoxyphenyl)-1,3,4-thiadiazol-2-yl)carbamoyl)benzoate] | 23.5 ± 2.5 µM | 16 ± 10 µM | 100 µM | 25.9% | 6.1 ×10⁻⁶ cm/s | < 0.1 µg/mL | > 1 µM | 
10 | COC(=O)c1ccccc1C(=O)Nc1nnc(-c2ccccc2[N+](=O)[O-])s1 [Compound 32, Methyl 2-((5-(2-nitrophenyl)-1,3,4-thiadiazol-2-yl)carbamoyl)benzoate] |  |  |  |  |  |  |  | DDX3X ATPase Ki (apparent dissociation constant for inhibitor binding) (DDX3X ATPase): annulled enzymatic inhibition
11 | O=C(Nc1nnc(-c2ccccc2[N+](=O)[O-])s1)c1ccccc1S(=O)(=O)O [Compound 34, 2-((5-(2-Nitrophenyl)-1,3,4-thiadiazol-2-yl)carbamoyl)benzenesulfonic acid] | 35.4 ± 3.5 µM | > 50 µM | 110 µM |  |  |  |  | 
12 | Nc1ccccc1-c1nnc(NC(=O)c2ccccc2S(=O)(=O)O)s1 [Compound 35, 2-((5-(2-Aminophenyl)-1,3,4-thiadiazol-2-yl)carbamoyl)benzenesulfonic acid] | 20.1 ± 2.1 µM | > 50 µM | 130 µM |  |  |  |  | 
13 | Nc1ccccc1-c1nnc(NC(=O)c2ccccc2C(=O)O)s1 [Compound 36, 2-((5-(2-Aminophenyl)-1,3,4-thiadiazol-2-yl)carbamoyl)benzoic acid] |  |  |  |  |  |  |  | DDX3X ATPase Ki (apparent dissociation constant for inhibitor binding) (DDX3X ATPase): total loss of inhibitory capability
14 | O=C(CN1C(=O)/C(=C/c2cccc(Br)c2)SC1=S)Nc1ccccc1O [FE15] |  |  |  |  |  |  |  | EC50 (HIV-1): 86.7 µM
15 | O=C1/C(=C/c2c(NCCCO)nc3ccccn3c2=O)SC(=S)N1CCc1ccccc1 [FE109] |  |  |  |  |  |  |  | Ki (DDX3X): 0.2 µM
